Experimental data as given in US6479467B1, “Cyclodextrin ethers” (Eastman Chemical Company, priority 1999, dated 2002).

Method: The suspensions were stirred for 24 hours at 25° C. The undissolved residues were removed by filtration through a […] filter. The solutions were diluted with a 1:1 water/ethanol mixture and concentrations of the guest molecules were determined spectrophotometrically using an HP 8542 diode array spectrophotometer. The solubility of the guest molecules was represented as a function of the CD derivative concentration. The apparent binding constants were calculated from the slope of the solubility isotherm. The guest molecules evaluated were water-immiscible pharmaceuticals, fragrances, and other organic molecules.

Compound | Kc(HBen-β-CD), apparent binding constant in guest molecule/CD derivative complex | Kc(HP-β-CD), apparent binding constant in guest molecule/CD derivative complex | Binding constants compared with HP-β-CD, in words
CC(C)Cc1ccc(C(C)C(=O)O)cc1 (centres unmarked) [Ibuprofen, ibuprofen] | 520 M⁻¹ | 376 M⁻¹ | 
COc1ccc(Cl)cc1C(=O)NCCc1ccc(S(=O)(=O)NC(=O)NC2CCCCC2)cc1 [Glibenclamide, glibenclamide] | 136 M⁻¹ | 62 M⁻¹ | 
Cc1ccccc1 [Toluene, toluene] | 1111 M⁻¹ | 773 M⁻¹ | 
O=C(O)c1ccccc1O [Salicylic Acid, salicylic acid] | 183 M⁻¹ |  | 
hydroxybutenyl-β-cyclodextrin [HBen-β-CD] |  |  | higher binding constants than did HP-β-CD
